Laboratory results reported in ChEMBL document CHEMBL3621073, “Bile acid amphiphiles with tunable head groups as highly selective antitubercular agents” (Medchemcomm, 2014).
Converted amounts (≈) assume the structure as drawn. The source made the active and inactive calls. The rule behind the calls is not given here.

Columns and labels:
[1] = test system: Mycobacterium tuberculosis; test: Antimycobacterial activity against Mycobacterium bovis BCG assessed as pore and grove formation by atomic force microscopic analysis; assay type: functional, organism-based; conditions: variant bovis BCG
[2] = test system: Mycobacterium tuberculosis; test: Antimycobacterial activity against Mycobacterium bovis BCG after 14 days by inverted microscopic analysis in presence of plasma; assay type: functional; conditions: variant bovis BCG, 336 h
[3] = test system: Mycobacterium tuberculosis; test: Antimycobacterial activity against Mycobacterium bovis BCG assessed as rugged membrane surface by atomic force microscopic analysis; assay type: functional, organism-based; conditions: variant bovis BCG
[4] = test system: Mycobacterium tuberculosis; test: Antimycobacterial activity against Mycobacterium bovis BCG after 14 days by inverted microscopic analysis; assay type: functional; conditions: variant bovis BCG, 336 h
[5] = test system: Mycobacterium tuberculosis; test: Antimycobacterial activity against Mycobacterium bovis BCG assessed as effect on membrane topology by atomic force microscopic analysis; assay type: functional, organism-based; conditions: variant bovis BCG
[6] = test system: Mycobacterium tuberculosis; test: Antimycobacterial activity against Mycobacterium bovis BCG assessed as effect on membrane morphology by atomic force microscopic analysis; assay type: functional, organism-based; conditions: variant bovis BCG

SMILES	MIC99 [4] [µM]	further results
COC(=O)CC[C@@H](C)[C@H]1CC[C@H]2[C@@H]3[C@H](OC(=O)C[n+]4ccc(N(C)C)cc4)C[C@@H]4C[C@H](OC(=O)C[n+]5ccc(N(C)C)cc5)CC[C@]4(C)[C@H]3C[C@H](OC(=O)C[n+]3ccc(N(C)C)cc3)[C@]12C.[Cl-].[Cl-].[Cl-]	3.12	Activity [1]: Active; MIC99 [2]: 6.25 µM; Activity [3]: Active
COC(=O)CC[C@@H](C)[C@H]1CC[C@H]2[C@@H]3CC[C@@H]4C[C@H](OC(=O)C[n+]5ccc(N(C)C)cc5)CC[C@]4(C)[C@H]3C[C@H](OC(=O)C[n+]3ccc(N(C)C)cc3)[C@]12C	2.34	–
COC(=O)CC[C@@H](C)[C@H]1CC[C@H]2[C@@H]3[C@H](OC(=O)C[N+]4(C)CCCCC4)C[C@@H]4C[C@H](OC(=O)C[N+]5(C)CCCCC5)CC[C@]4(C)[C@H]3C[C@H](OC(=O)C[N+]3(C)CCCCC3)[C@]12C.[Cl-].[Cl-].[Cl-]	6.25	–
COC(=O)CC[C@@H](C)[C@H]1CC[C@H]2[C@@H]3[C@H](OC(=O)C[N+](C)(C)C)C[C@@H]4C[C@H](OC(=O)C[N+](C)(C)C)CC[C@]4(C)[C@H]3CC[C@]12C	4.68	–
COC(=O)CC[C@@H](C)[C@H]1CC[C@H]2[C@@H]3CC[C@@H]4C[C@H](OC(=O)C[N+](C)(C)C)CC[C@]4(C)[C@H]3C[C@H](OC(=O)C[N+](C)(C)C)[C@]12C	25	–
COC(=O)CC[C@@H](C)[C@H]1CC[C@H]2[C@@H]3CC[C@@H]4C[C@H](OC(=O)C[N+]5(C)CCCCC5)CC[C@]4(C)[C@H]3C[C@H](OC(=O)C[N+]3(C)CCCCC3)[C@]12C	3.12	–
COC(=O)CC[C@@H](C)[C@H]1CC[C@H]2[C@@H]3CC[C@@H]4C[C@H](OC(=O)CN)CC[C@]4(C)[C@H]3CC[C@]12C	> 50	–
C[C@H]1COc2c(N3CCN(C)CC3)c(F)cc3c(=O)c(C(=O)O)cn1c23 [LEVOFLOXACIN]	0.39 (≈ 0.141 µg/mL)	–
COC(=O)CC[C@@H](C)[C@H]1CC[C@H]2[C@@H]3[C@H](OC(=O)C[n+]4ccccc4)C[C@@H]4C[C@H](OC(=O)C[n+]5ccccc5)CC[C@]4(C)[C@H]3CC[C@]12C	9.38	–
COC(=O)CC[C@@H](C)[C@H]1CC[C@H]2[C@@H]3[C@H](OC(=O)C[n+]4ccc(N(C)C)cc4)C[C@@H]4C[C@H](OC(=O)C[n+]5ccc(N(C)C)cc5)CC[C@]4(C)[C@H]3CC[C@]12C	3.12	–
COC(=O)CC[C@@H](C)[C@H]1CC[C@H]2[C@@H]3[C@H](OC(=O)CN)C[C@@H]4C[C@H](OC(=O)CN)CC[C@]4(C)[C@H]3C[C@H](OC(=O)CN)[C@]12C.Cl.Cl.Cl	18.8	Activity [5]: inactive; Activity [6]: inactive
COC(=O)CC[C@@H](C)[C@H]1CC[C@H]2[C@@H]3[C@H](OC(=O)C[N+]4(C)CCCCC4)C[C@@H]4C[C@H](OC(=O)C[N+]5(C)CCCCC5)CC[C@]4(C)[C@H]3CC[C@]12C	6.25	–
NNC(=O)c1ccncc1 [ISONIAZID]	0.78 (≈ 0.107 µg/mL)	–
COC(=O)CC[C@@H](C)[C@H]1CC[C@H]2[C@@H]3CC[C@@H]4C[C@H](OC(=O)C[N+](C)(C)C)CC[C@]4(C)[C@H]3CC[C@]12C	50	–
COC(=O)CC[C@@H](C)[C@H]1CC[C@H]2[C@@H]3CC[C@@H]4C[C@H](OC(=O)C[n+]5ccccc5)CC[C@]4(C)[C@H]3CC[C@]12C	> 50	–
COC(=O)CC[C@@H](C)[C@H]1CC[C@H]2[C@@H]3CC[C@@H]4C[C@H](OC(=O)CN)CC[C@]4(C)[C@H]3C[C@H](OC(=O)CN)[C@]12C	25 (≈ 13 µg/mL)	–
COC(=O)CC[C@@H](C)[C@H]1CC[C@H]2[C@@H]3[C@H](OC(=O)CN)C[C@@H]4C[C@H](OC(=O)CN)CC[C@]4(C)[C@H]3CC[C@]12C	37.5 (≈ 19.5 µg/mL)	–
COC(=O)CC[C@@H](C)[C@H]1CC[C@H]2[C@@H]3CC[C@@H]4C[C@H](OC(=O)C[N+]5(C)CCCCC5)CC[C@]4(C)[C@H]3CC[C@]12C	50	–
COC(=O)CC[C@@H](C)[C@H]1CC[C@H]2[C@@H]3CC[C@@H]4C[C@H](OC(=O)C[n+]5ccccc5)CC[C@]4(C)[C@H]3C[C@H](OC(=O)C[n+]3ccccc3)[C@]12C	6.25	–
COC(=O)CC[C@@H](C)[C@H]1CC[C@H]2[C@@H]3[C@H](OC(=O)C[n+]4ccccc4)C[C@@H]4C[C@H](OC(=O)C[n+]5ccccc5)CC[C@]4(C)[C@H]3C[C@H](OC(=O)C[n+]3ccccc3)[C@]12C.[Cl-].[Cl-].[Cl-]	6.25	–
COC(=O)CC[C@@H](C)[C@H]1CC[C@H]2[C@@H]3[C@H](OC(=O)C[N+](C)(C)C)C[C@@H]4C[C@H](OC(=O)C[N+](C)(C)C)CC[C@]4(C)[C@H]3C[C@H](OC(=O)C[N+](C)(C)C)[C@]12C.[Cl-].[Cl-].[Cl-]	6.25	–
COC(=O)CC[C@@H](C)[C@H]1CC[C@H]2[C@@H]3CC[C@@H]4C[C@H](OC(=O)C[n+]5ccc(N(C)C)cc5)CC[C@]4(C)[C@H]3CC[C@]12C	50	–
